Assay results reported in patent US8101180B2, “Anti-IGF-IR and/or anti-insulin/IGF-I hybrid receptors antibodies and uses thereof” (Pierre Fabre Medicament, priority 2002, dated 2012).
“Also recorded” adds a separate entry of the source.

Legend:
[1] = test system: noninfected Sf9 insect cells; experiment: FACS labeling of noninfected Sf9 insect cells; format: binding; conditions: FACScan
Text: In FIG. 4B, Sf9 cells uniquely expressing IGF-IR are labeled with αIR3 (2) or anti-IR(3), the peak (1) representing the single cells. In FIG. 4C, Sf9 cells uniquely expressing IR are labeled with an anti-IR (3) or αIR3 (2), the peak (1) representing the single cells.
evaluating the supernatants of hybridomas positive in the two first screenings in terms of differential recognition of IGF-IR and of IR on insect cells infected with baculoviruses respectively expressing IGF-IR or IR,
For the immunization stage, mice were injected twice, by the subcutaneous route, with 8 μg of recombinant IGF-IR. Three days before the fusion of the cells of the […] with the cells of the murine myeloma Sp2OAg14, the mice were stimulated by an intravenous injection of 3 μg of the recombinant receptor. Fourteen days after the fusion, the supernatants of hybridomas were screened by ELISA, on plates sensitized by recombinant IGF-IR. The hybridomas whose supernatants were found positive were conserved and amplified before being tested on the FACScan so as to verify that the antibodies produced were likewise capable of recognizing native IGF-IR. In order to do this, MCF-7 cells from an estrogen-dependent tumor of the breast overexpressing IGF-IR were incubated with each of the culture supernatants produced by the hybridomas selected in ELISA. […]

MCF-7 cells = experiment: IGF2-induced proliferation of MCF-7 cells; format: cell-based, human; conditions: IGF2 200 ng/ml; MAb 10 μg/ml
Experimental: As indicated above, IGF-IR is overexpressed by numerous tumors but it has furthermore been described that in a good part of the cancers of the breast and of the colon especially, the proliferation signal is given to this receptor via IGF2 (sometimes written IGF-II or IGFII). […] In order to do this, cells were inoculated into 96-well plates, deprived of fetal calf serum and stimulated by the addition of 200 ng of IGF2 per ml, final concentration, of medium, in the presence and in the absence of the MAb to be tested introduced at a concentration of 10 μg/ml.

With “7C10: murine monoclonal anti-IGF-IR IgG1 secreted by the hybridoma deposited at the CNCM under the number I-2717” as the substance, how does the “MFI (Mean fluorescence intensity), Noninfected cells” value [1] read?
The value was 8.6.

What about the “inhibition of IGF2-induced growth of MCF-7 cells” value (MCF-7 cells) of the same substance?
Its value is “totally inhibits the growth induced by IGF2; also recorded: significantly better than that of 1H7”.
